# Measurements as given in the kinase profiling compilation of Christmann-Franck et al. (2016).
# Key:
# Test in all cases: radiometric filter-binding kinase assay, Kinase HotSpot
# Details in all cases: compound 0.5 µM; ATP 10 µM
# STK3 (human) = STK3 (human) (UniProt Q13188)
# PKN2 (human) = PKN2 (human) (UniProt Q16513)
# LTK (human) = LTK (human) (UniProt P29376)
# EPHA8 (human) = EPHA8 (human) (UniProt P29322)
# EPHB4 (human) = EPHB4 (human) (UniProt P54760)
# FLT3 (human) = FLT3 (human) (UniProt P36888)
# NEK1 (human) = NEK1 (human) (UniProt Q96PY6)
# CDK4 CCND1 (human) = CDK4 CCND1 (human) (UniProt P24385+P11802)
# EPHB3 (human) = EPHB3 (human) (UniProt P54753)
# PAK2 (human) = PAK2 (human) (UniProt Q13177)
# MAP3K7 TAB1 (human) = MAP3K7 TAB1 (human) (UniProt O43318+Q15750)
# PHKG2 (human) = PHKG2 (human) (UniProt P15735)
# CHEK1 (human) = CHEK1 (human) (UniProt O14757)
# IRAK4 (human) = IRAK4 (human) (UniProt Q9NWZ3)
# MAPK9 (human) = MAPK9 (human) (UniProt P45984)
# TSSK1B (human) = TSSK1B (human) (UniProt Q9BXA7)
# Chain of TSSK1B (human) (Q9BXA7 whole entry, looked up): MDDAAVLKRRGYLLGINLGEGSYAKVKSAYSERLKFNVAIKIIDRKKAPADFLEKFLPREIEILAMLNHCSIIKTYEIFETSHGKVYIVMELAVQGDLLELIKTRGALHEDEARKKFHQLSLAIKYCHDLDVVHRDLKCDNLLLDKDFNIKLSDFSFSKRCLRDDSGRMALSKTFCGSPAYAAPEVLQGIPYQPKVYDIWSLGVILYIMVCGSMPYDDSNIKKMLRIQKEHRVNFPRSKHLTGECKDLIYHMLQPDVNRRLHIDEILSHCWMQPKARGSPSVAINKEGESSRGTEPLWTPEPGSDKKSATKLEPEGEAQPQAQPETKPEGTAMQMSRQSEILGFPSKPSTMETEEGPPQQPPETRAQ
# NTRK1 (human) = NTRK1 (human) (UniProt P04629)
# WEE1 (human) = WEE1 (human) (UniProt P30291)
# Chain of WEE1 (human) (P30291 whole entry, looked up): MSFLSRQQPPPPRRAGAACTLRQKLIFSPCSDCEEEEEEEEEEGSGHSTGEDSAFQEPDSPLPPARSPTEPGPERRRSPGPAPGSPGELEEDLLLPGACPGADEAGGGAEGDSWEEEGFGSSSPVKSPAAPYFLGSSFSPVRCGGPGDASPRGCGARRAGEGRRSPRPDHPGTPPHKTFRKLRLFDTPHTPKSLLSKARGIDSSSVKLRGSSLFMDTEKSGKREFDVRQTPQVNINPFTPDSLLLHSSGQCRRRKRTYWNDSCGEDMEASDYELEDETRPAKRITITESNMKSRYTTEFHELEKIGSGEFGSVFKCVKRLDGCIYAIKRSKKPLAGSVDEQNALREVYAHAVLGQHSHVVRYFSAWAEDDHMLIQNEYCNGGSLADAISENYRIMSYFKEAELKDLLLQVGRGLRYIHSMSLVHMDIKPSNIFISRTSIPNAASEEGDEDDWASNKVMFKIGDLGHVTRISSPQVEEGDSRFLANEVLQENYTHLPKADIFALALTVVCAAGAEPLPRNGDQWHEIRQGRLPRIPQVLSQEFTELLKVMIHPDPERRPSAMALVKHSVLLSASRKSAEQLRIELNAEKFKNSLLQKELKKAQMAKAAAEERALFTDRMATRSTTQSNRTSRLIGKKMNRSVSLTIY
# ULK2 (human) = ULK2 (human) (UniProt Q8IYT8)
# PTK6 (human) = PTK6 (human) (UniProt Q13882)
# PIM1 (human) = PIM1 (human) (UniProt P11309)
# STK16 (human) = STK16 (human) (UniProt O75716)
# IKBKE (human) = IKBKE (human) (UniProt Q14164)
# PRKACA (human) = PRKACA (human) (UniProt P17612)
# PRKD3 (human) = PRKD3 (human) (UniProt O94806)
# CDK9 CCNK (human) = CDK9 CCNK (human) (UniProt O75909+P50750)
# CSNK2A2 (human) = CSNK2A2 (human) (UniProt P19784)
# WNK3 (human) = WNK3 (human) (UniProt Q9BYP7)
# CAMK4 (human) = CAMK4 (human) (UniProt Q16566)
# CSNK1G1 (human) = CSNK1G1 (human) (UniProt Q9HCP0)
# LRRK2 (human) = LRRK2 (human) (UniProt Q5S007)
# PRKCE (human) = PRKCE (human) (UniProt Q02156)
# Chain of PRKCE (human) (Q02156 whole entry, looked up): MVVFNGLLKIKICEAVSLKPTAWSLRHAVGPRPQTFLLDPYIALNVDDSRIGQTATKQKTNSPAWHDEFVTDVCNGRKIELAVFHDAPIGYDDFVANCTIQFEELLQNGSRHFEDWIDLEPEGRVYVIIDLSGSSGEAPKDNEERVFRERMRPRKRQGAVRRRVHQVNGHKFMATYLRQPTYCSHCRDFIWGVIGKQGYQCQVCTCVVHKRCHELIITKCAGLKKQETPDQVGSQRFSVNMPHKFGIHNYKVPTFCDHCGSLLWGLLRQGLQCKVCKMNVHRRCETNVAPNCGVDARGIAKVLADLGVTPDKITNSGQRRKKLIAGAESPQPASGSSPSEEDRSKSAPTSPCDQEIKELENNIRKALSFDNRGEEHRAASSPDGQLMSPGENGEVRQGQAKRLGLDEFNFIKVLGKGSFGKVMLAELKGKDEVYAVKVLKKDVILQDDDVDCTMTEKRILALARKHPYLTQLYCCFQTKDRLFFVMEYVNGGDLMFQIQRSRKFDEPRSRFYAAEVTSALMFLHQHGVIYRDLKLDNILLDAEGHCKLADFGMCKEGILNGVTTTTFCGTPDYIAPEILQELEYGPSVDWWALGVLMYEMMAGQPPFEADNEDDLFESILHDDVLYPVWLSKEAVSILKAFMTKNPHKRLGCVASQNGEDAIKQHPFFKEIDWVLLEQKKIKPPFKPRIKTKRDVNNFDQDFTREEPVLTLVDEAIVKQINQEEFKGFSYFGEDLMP
# AKT2 (human) = AKT2 (human) (UniProt P31751)
# Chain of AKT2 (human) (P31751 whole entry, looked up): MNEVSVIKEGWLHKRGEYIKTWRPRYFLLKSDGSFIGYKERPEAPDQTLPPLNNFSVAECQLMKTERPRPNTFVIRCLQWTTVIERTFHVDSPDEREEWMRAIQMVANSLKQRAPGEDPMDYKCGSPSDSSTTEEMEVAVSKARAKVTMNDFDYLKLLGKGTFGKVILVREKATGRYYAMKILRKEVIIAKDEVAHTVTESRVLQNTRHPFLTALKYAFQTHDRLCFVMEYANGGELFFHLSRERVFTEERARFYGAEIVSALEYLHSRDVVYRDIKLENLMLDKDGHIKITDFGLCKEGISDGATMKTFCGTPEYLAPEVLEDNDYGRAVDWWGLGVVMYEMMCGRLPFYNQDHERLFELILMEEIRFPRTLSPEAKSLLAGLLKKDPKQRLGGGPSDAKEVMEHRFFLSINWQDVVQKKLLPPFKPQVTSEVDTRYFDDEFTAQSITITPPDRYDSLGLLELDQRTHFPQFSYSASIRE
# NEK9 (human) = NEK9 (human) (UniProt Q8TD19)
# CSF1R (human) = CSF1R (human) (UniProt P07333)
# Chain of CSF1R (human) (P07333 whole entry, looked up): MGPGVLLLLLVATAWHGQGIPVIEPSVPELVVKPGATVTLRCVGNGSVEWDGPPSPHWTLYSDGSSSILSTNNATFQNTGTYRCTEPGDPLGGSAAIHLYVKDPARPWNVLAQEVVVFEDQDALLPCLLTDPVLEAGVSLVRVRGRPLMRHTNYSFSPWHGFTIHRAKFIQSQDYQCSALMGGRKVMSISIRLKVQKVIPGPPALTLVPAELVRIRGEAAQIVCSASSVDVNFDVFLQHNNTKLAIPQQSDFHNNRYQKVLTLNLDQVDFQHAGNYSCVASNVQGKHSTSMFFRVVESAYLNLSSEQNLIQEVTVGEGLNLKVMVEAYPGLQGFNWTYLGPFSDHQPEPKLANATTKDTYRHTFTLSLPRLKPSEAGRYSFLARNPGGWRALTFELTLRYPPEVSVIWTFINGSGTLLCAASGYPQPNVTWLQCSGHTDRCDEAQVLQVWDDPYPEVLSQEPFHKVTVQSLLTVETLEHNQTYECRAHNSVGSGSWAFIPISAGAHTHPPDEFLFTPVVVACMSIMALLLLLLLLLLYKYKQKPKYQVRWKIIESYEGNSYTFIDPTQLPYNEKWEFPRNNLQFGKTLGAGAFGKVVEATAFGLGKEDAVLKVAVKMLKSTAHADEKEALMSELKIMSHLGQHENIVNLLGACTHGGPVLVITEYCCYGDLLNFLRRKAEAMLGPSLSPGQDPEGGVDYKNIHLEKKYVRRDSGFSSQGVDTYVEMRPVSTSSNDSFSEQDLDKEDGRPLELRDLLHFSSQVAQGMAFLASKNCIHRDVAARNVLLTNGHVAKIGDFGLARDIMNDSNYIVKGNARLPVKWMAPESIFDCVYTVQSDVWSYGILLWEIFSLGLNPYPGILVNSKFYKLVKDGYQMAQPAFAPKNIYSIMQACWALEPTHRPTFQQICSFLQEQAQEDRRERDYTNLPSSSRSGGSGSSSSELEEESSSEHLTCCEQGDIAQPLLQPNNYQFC
# EPHA7 (human) = EPHA7 (human) (UniProt Q15375)
# [1] = system: MKNK1 (human), Q9BUB5 [T385D; 165-205 del]
# CDK3 CCNE1 (human) = CDK3 CCNE1 (human) (UniProt Q00526+P24864)
# Chain of CDK3 CCNE1 (human) (P24864 whole entry, looked up): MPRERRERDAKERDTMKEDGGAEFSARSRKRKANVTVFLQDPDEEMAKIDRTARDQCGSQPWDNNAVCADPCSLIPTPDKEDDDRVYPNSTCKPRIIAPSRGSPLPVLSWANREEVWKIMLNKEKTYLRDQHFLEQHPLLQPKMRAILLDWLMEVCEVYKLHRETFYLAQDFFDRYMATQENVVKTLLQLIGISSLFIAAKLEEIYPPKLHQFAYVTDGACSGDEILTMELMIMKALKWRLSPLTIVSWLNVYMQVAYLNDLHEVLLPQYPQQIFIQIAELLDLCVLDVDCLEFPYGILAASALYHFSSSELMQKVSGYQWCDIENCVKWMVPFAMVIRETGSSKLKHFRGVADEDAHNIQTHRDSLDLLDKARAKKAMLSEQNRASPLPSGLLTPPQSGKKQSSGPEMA
# Chain of CDK3 CCNE1 (human) (Q00526 whole entry, looked up): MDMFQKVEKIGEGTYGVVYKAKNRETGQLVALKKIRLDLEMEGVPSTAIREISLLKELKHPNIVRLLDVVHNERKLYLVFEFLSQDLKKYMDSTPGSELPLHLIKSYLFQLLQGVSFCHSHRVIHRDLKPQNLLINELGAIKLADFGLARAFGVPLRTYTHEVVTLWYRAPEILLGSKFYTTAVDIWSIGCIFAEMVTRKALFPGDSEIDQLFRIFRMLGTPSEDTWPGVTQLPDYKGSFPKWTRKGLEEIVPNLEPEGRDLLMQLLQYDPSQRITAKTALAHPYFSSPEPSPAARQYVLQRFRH
# Chain of EPHB4 (human) (P54760 whole entry, looked up): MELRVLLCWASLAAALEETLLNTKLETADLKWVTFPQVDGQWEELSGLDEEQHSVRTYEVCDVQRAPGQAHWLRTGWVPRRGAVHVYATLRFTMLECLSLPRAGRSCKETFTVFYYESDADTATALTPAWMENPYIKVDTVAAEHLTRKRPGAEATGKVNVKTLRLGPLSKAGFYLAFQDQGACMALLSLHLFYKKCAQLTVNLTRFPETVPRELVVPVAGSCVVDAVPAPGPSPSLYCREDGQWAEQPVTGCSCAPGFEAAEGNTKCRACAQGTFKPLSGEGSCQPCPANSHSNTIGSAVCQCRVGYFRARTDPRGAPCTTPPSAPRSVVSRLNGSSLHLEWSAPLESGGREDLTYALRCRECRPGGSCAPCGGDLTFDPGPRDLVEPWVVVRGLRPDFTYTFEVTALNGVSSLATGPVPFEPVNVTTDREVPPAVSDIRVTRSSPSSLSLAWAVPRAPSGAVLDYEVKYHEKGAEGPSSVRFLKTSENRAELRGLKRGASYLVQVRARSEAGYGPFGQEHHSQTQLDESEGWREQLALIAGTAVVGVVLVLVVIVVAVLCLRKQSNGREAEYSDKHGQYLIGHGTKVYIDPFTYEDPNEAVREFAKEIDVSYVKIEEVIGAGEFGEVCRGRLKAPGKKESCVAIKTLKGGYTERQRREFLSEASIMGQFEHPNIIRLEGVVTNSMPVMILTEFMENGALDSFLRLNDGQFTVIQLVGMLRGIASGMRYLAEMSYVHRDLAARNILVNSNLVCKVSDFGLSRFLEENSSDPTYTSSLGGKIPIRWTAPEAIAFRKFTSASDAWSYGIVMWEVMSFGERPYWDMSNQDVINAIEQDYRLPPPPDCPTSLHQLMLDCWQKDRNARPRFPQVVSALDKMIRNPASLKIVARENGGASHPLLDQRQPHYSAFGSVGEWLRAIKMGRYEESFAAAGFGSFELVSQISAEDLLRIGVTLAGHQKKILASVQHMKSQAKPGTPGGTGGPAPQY
Structure (SMILES),residual activity (STK3 (human)) [%],residual activity (PKN2 (human)) [%],residual activity (LTK (human)) [%],residual activity (EPHA8 (human)) [%],residual activity (EPHB4 (human)) [%],residual activity (FLT3 (human)) [%],residual activity (NEK1 (human)) [%],residual activity (CDK4 CCND1 (human)) [%],residual activity (EPHB3 (human)) [%],residual activity (PAK2 (human)) [%],residual activity (MAP3K7 TAB1 (human)) [%],residual activity (PHKG2 (human)) [%],residual activity (CHEK1 (human)) [%],residual activity (IRAK4 (human)) [%],residual activity (MAPK9 (human)) [%],residual activity (TSSK1B (human)) [%],residual activity (NTRK1 (human)) [%],residual activity (WEE1 (human)) [%],residual activity (ULK2 (human)) [%],residual activity (PTK6 (human)) [%],further results
CN(C)c1ccc(/C=C2\C(=O)Nc3ccccc32)cc1,100,98.9,96.8,103,97.4,15.3,112,97.7,94.9,102,100,95.9,98.2,104,103,102,96.6,88.6,97.1,98.8,residual activity (PIM1 (human)): 101%; residual activity (STK16 (human)): 87.9%; residual activity (IKBKE (human)): 98.2%; residual activity (PRKACA (human)): 104%; residual activity (PRKD3 (human)): 99.2%; residual activity (CDK9 CCNK (human)): 100%; residual activity (CSNK2A2 (human)): 98.6%; residual activity (WNK3 (human)): 98.1%; residual activity (CAMK4 (human)): 97.8%; residual activity (CSNK1G1 (human)): 93%; residual activity (LRRK2 (human)): 89.8%; residual activity (PRKCE (human)): 92.6%; residual activity (AKT2 (human)): 98.1%; residual activity (NEK9 (human)): 99.8%; residual activity (CSF1R (human)): 77.5%; residual activity (EPHA7 (human)): 99.1%; residual activity [1]: 97.3%; residual activity (CDK3 CCNE1 (human)): 98.7%
COc1ccc2c(c1)c(C1=C(c3c[nH]c4ccccc34)C(=O)NC1=O)cn2CCCN(C)C,72.2,95,81.9,102,94.2,23.2,94.7,78.6,97,108,102,98.3,88.8,91.2,86.1,80.3,83.1,85.1,96.1,92,residual activity (PIM1 (human)): 11.6%; residual activity (STK16 (human)): 93.1%; residual activity (IKBKE (human)): 100%; residual activity (PRKACA (human)): 77.9%; residual activity (PRKD3 (human)): 91.9%; residual activity (CDK9 CCNK (human)): 54.6%; residual activity (CSNK2A2 (human)): 99.3%; residual activity (WNK3 (human)): 92%; residual activity (CAMK4 (human)): 90.3%; residual activity (CSNK1G1 (human)): 84.1%; residual activity (LRRK2 (human)): 87%; residual activity (PRKCE (human)): 14.6%; residual activity (AKT2 (human)): 110%; residual activity (NEK9 (human)): 90.3%; residual activity (CSF1R (human)): 92.8%; residual activity (EPHA7 (human)): 88.8%; residual activity [1]: 92.8%; residual activity (CDK3 CCNE1 (human)): 78.8%
Ic1cccc(CSc2nnc(-c3ccncc3)o2)c1,110,100,103,91.5,101,102,95.5,96.3,99.7,97.6,102,105,96.3,105,108,97.6,96,97.2,111,104,residual activity (PIM1 (human)): 102%; residual activity (STK16 (human)): 110%; residual activity (IKBKE (human)): 102%; residual activity (PRKACA (human)): 94.6%; residual activity (PRKD3 (human)): 98.4%; residual activity (CDK9 CCNK (human)): 105%; residual activity (CSNK2A2 (human)): 81%; residual activity (WNK3 (human)): 101%; residual activity (CAMK4 (human)): 91.6%; residual activity (CSNK1G1 (human)): 91.7%; residual activity (LRRK2 (human)): 91.9%; residual activity (PRKCE (human)): 86.5%; residual activity (AKT2 (human)): 101%; residual activity (NEK9 (human)): 99.2%; residual activity (CSF1R (human)): 104%; residual activity (EPHA7 (human)): 100%; residual activity [1]: 109%; residual activity (CDK3 CCNE1 (human)): 87.4%
